Experiments:
SCD mice = assay: Oral AS-28 in SCD mice: blood count, HbF HPLC, F-cells, blood smear; assay type: in vivo; settings: 50, 75 or 100 mg/kg oral gavage twice per day, 5 days per week, 4 weeks
Procedure: Sickle cell disease mice (B6; 129-Hba^tm1(HBA)Tow, Hbb^tm2(HBG1,HBB*)Tow/J) were purchased from Jackson Laboratory and were bred at the AS Core, Academia Sinica. Mice of 6-8 weeks old were used for experiments. Treatment groups received vehicle [20% (2-Hydroxypropyl)-β-cyclodextrin] plus AS-28 (50 mg/kg, 75 mg/kg or 100 mg/kg), which was administered by oral gavage twice per day, 5 days per week, for 4 weeks.
Blood was collected by submandibular blood collection and analysis was performed using a ProCyte Dx automatic analyzer.
10 μl of whole blood was washed twice with PBS and then fixed with 0.05% glutaraldehyde for 10 minutes. After fixation, the cells were washed twice with PBS and then permeabilized by adding cold 0.1% Triton X-100 for 5 minutes. Cells were washed twice with 0.1% BSA/PBS and stained with PE-HbF antibody (BD) for 40 minutes at room temperature (with protection from light). Finally, the cells were washed three times with 0.1% BSA/PBS and passed through a […] cell strainer (Falcon). F-cell % was analyzed by flow cytometry (LSRII-18P, BD).
50 μl of whole blood was lysed in 200 μl ddH2O and centrifuged for 5 minutes at 13,000 rpm to extract the hemolysate. HPLC was performed according to a previously described protocol^22.
For hypoxia treatment, whole blood was incubated in a hypoxic incubator chamber (3% 02) for 30 minutes. […] of whole blood (with or without hypoxia) was used to make blood smears on slides. Slides were air-dried and then stained with Liu-stain before quantifying the percentage of sickle-shaped cells.
To further evaluate the therapeutic potential of AS-28 for treating hemoglobinopathies, SCD mice (an SCD disease animal model generated by the laboratory of Prof. Tim Townes, University of Alabama) were used to examine whether AS-28 treatment could relieve anemia in SCD mice. Different dosages of AS-28 were administered to 6-8 week-old SCD mice over four weeks. After four weeks of oral gavage, blood samples from the treated SCD mice were collected for several biochemical analyses (FIG. 5). […] Reticulocyte (RET), white blood cell (WBC) and neutrophil (NEUT) values were equivalent between AS-28-treated and mock-treated SCD mice. […] A diagnostic indicator of SCD is the characteristic sickle-shaped morphology of red blood cells under hypoxia.

in vivo = settings: rat
Text: The abbreviations as defined as follows: IV—intravenous; PO—per-os (oral); T1/2—half-life; CL—clearance; Vss—steady-state distribution volume; AUC(0-inf)—area under the curve; F—bioavailability; ND—not detected.

NFE2L2 = assay: RT-qPCR of γ-globin transcription regulators in human primary erythroid cells: NFE2L2; assay type: cell-based; settings: AS-28 0.5 μM
Procedure: (§1) The total RNAs were isolated from human primary erythroid cells in culture without (Mock) and with (AS-28) treatment by AS-28, and analyzed by RT-qPCR. N=4 biological experiments, *, p<0.05; ***, p<0.001.
(§2) After 3 days of compound treatment, total RNA was extracted by a Quick-RNA miniprep kit (Zymo) and reverse-transcription was performed using Maxima H Minus Reverse Transcriptase (ThermoFisher Scientific) according to the manufacturer's instructions. Quantitative PCR was performed on a LightCycler system with SYBR green master mix following the manufacturer's instructions (Roche). The relative quantitative RT-PCR data was normalized to the Cq number of […] and compared to a mock control.
(§3) In order to examine whether AS-28 would cause cellular toxicity, the gene expression profiles of human primary erythroid cells in culture were compared by RNA-sequence analysis. Several candidate genes, encoding known γ globin gene regulators were selected from the gene list of RNA-sequence data (fold change >1.4) for validation by RT-qPCR (FIG. 7). […] In addition, AS-28 inhibited the expression of γ globin repressor c-MYB (0.5-fold).

γ-globin gene [1] = assay: γ-globin mRNA induction by quantitative RT-PCR in primary human erythroid cell culture; assay type: cell-based; settings: 3 days, primary human erythroid cells
Procedure: (§4) Peripheral blood samples were purchased from the Taipei Blood Center. The concentrated blood was diluted 1:5 (V/V) in phosphate-buffered saline (PBS) and distributed in a thin layer on Ficoll-paque PLUS ([…]) (GE Healthcare) in a SepMate column (STEMCELL). After centrifugation at 1200 g for 10 minutes, the cells in the inter-phase region were collected. The collected cells were washed with PBS and centrifuged at low speed three times. The remaining mononuclear cells were expanded in Phase I medium containing 1×SFEM (STEMCELL), 100 ng/ml SCF, 20 ng/ml IL-3, 20 ng/ml IL-6, and 100 ng/ml Flt3-L at 37° C. in an incubator with 5% CO2 for 7 days. […]
as §2
Compound AS-28 was designed based on the pharmacophore of the HbF-inducing compound TN1 (FIGS. 1A-1B). The efficacy of γ-globin gene induction by AS-28 treatment using a primary human erythroid cell culture system was evaluated. […]

[2] = tested on: primary human erythroid cells; assay: Cell viability assay (AlamarBlue) in primary human erythroid cell culture; assay type: cell-based; settings: 3 days
Procedure: as §4, with “days. The expanded mononuclear cells were further differentiated in Phase II medium containing 1×SFEM (StemSpan), 20 ng/ml SCF, 5 ng/ml IL-3, 1 U/ml EPO for another 7 days.” for “days.”
Cell viability was assessed using AlamarBlue reagent (Invitrogen). […] Cell viability was evaluated using a multi-label counter (Ex 530-560 nm, Em 590 nm) (PerkinElmer).
Compound AS-28 was designed based on the pharmacophore of the HbF-inducing compound TN1 (FIGS. 1A-1B). The efficacy of γ-globin gene induction by AS-28 treatment using a primary human erythroid cell culture system was evaluated. After two weeks of in vitro erythroid cell differentiation, cells were treated with AS-28 for three days and then harvested for quantitative RT-PCR analysis and cell viability assay.

BCL11A protein = assay: Western blot of BCL11A protein in primary human erythroid cells; assay type: cell-based; settings: for expression level of BCL11A protein (in words): 3 days, AS-28 at 0.5 μM and 1 μM
Procedure: (§5) Peripheral blood samples were purchased from the Taipei Blood Center. The concentrated blood was diluted 1:5 (V/V) in phosphate-buffered saline (PBS) and distributed in a thin layer on Ficoll-paque PLUS ([…]) (GE Healthcare) in a SepMate column (STEMCELL). After centrifugation at 1200 g for 10 minutes, the cells in the inter-phase region were collected. The collected cells were washed with PBS and centrifuged at low speed three times. The remaining mononuclear cells were expanded in Phase I medium containing 1×SFEM (STEMCELL), 100 ng/ml SCF, 20 ng/ml IL-3, 20 ng/ml IL-6, and 100 ng/ml Flt3-L at 37° C. in an incubator with 5% CO2 for 7 days. The expanded mononuclear cells were further differentiated in Phase II medium containing 1×SFEM (StemSpan), 20 ng/ml SCF, 5 ng/ml IL-3, 1 U/ml EPO for another 7 days. The differentiated erythroid cells were treated with indicated compounds of different dosages with a seeding density of 5×10^5 cells/ml for another 3 days.
After 3 days of treatment, total protein was extracted by modified RIPA (50 mM Tris-HCl pH7.8, 150 mM NaCl, 1% NP-40, 0.5% sodium deoxycholate, 0.1% SDS, 1 mM EGTA, 5 mM EDTA, 10 mM NaF, 1 mM […] and 1× complete EDTA-free Protease Inhibitor Cocktail). 30 μg of protein extracts were separated by 10% SDS-PAGE and the resulting gel was blotted onto PVDF membrane. After blocking with 5% non-fat milk in TBST, the membrane was incubated overnight with primary antibody against BCL11A or β-actin at 4° C. After incubating with horseradish peroxidase-conjugated secondary antibodies and washing the blot, the signals of indicated proteins were visualized by ECL (PerkinElmer) following the manufacturer's protocol.
BCL11A has been reported as a key negative regulator of γ-globin gene expression^23. Knockdown of BCL11A dramatically increases expression of the γ-globin gene. To investigate whether HbF-inducing agents activate γ-globin gene expression by modulating BCL11A protein levels, primary human erythroid cells were treated with known HbF-inducing agents (HU, NaB, and AS-28 (0.5 μM and 1 μM)), and also Compound II, SS-2394, Compound 3, Compound 8, and then harvested for Western blot analysis (FIG. 4; FIG. 11).

[3] = tested on: HU-resistant primary human erythroid cells; assay: Cell viability in hydroxyurea-resistant primary human erythroid cells; assay type: cell-based; settings: 0.5 μM
Procedure: as §5
Cell viability was assessed using AlamarBlue reagent (Invitrogen). After 3 days of treatment, 100 μl of treated cell culture was transferred into a 96-well plate and 1/10 volume of AlamarBlue reagent was added and the cell culture was incubated overnight at 37° C. Cell viability was evaluated using a multi-label counter (Ex 530-560 nm, Em 590 nm) (PerkinElmer). […]

γ-globin gene [4] = assay: γ-globin mRNA induction in hydroxyurea-resistant primary human erythroid cells; assay type: cell-based; settings: 0.5 μM, HU-resistant primary human erythroid cells
Procedure: as §4, with “days. The expanded mononuclear cells were further differentiated in Phase II medium containing 1×SFEM (StemSpan), 20 ng/ml SCF, 5 ng/ml IL-3, 1 U/ml EPO for another 7 days.” for “days.”
as §2, with “control. […]” for “control.”

[5] = Solubility of the compounds; assay type: physicochemical
GATA1 = assay: RT-qPCR of γ-globin transcription regulators in human primary erythroid cells: GATA1; assay type: cell-based; settings: AS-28 0.5 μM
Procedure: as §1, §2, §3

c-MYB = assay: RT-qPCR of γ-globin transcription regulators in human primary erythroid cells: c-MYB; assay type: cell-based; settings: AS-28 0.5 μM
Procedure: as §1, §2, §3

[6] = tested on: human primary erythroid cells; assay: RNA-sequence gene expression profile with Ingenuity Pathways Analysis; assay type: cell-based; settings: human primary erythroid cells treated with AS-28
Procedure: The RNA-sequence data was analyzed by Ingenuity Pathways Analysis (IPA). The top cellular pathways in the primary erythroid cells affected by AS-28 are listed here. DEGs: Fold change ≥1.4, p<0.05.
as §3
To reveal the global effect of AS-28 on human primary erythroid cells, the differentially expressed genes (DEGs) from the RNA-sequence data (fold change ≥1.4 and p<0.05) were selected for analysis by Ingenuity Pathways Analysis (IPA).

SMILES: CCN1CCN(c2nc(Nc3cccc(NC(=O)C#Cc4ccc(C)cc4)c3)c3ncn(CC)c3n2)CC1 [AS-28, 3-p-Tolyl-propynoic acid {3-[9-ethyl-2-(4-ethylpiperazin-1-yl)-9H-purin-6-ylamino]phenyl}amide]
- hemoglobin levels (HGB) vs mock-treated control (SCD mice): slightly increased
- neutrophil (NEUT) values vs mock-treated (SCD mice): equivalent
- percentage of F-cells (flow cytometry) (SCD mice): elevated
- percentage of HbF (HPLC) (SCD mice): significantly increased
- percentage of sickle-shaped cells in blood smears under hypoxia (SCD mice): significantly decreased
- red blood cell (RBC) numbers vs mock-treated control (SCD mice): slightly increased
- reticulocyte (RET) values vs mock-treated (SCD mice): equivalent
- white blood cell (WBC) values vs mock-treated (SCD mice): equivalent
- bioavailability (in vivo): ~25%
- NFE2L2 expression (γ globin activator), RT-qPCR vs mock (NFE2L2): 1.5 fold
- γ-globin mRNA expression activation (γ-globin gene [1]; 0.5 μM): 3.5 fold
- γ-globin induction (γ-globin gene [1]; 1 μM and 2 μM): reduced
- cytotoxicity ([2]; 0.5 μM): without inducing significant cytotoxicity
- cytotoxicity ([2]; 1 μM and 2 μM): cell cytotoxicity
- expression level of BCL11A protein (in words) (BCL11A protein): significantly decreased
- reduction of BCL11A protein levels (BCL11A protein; FIG. 4): 50%
- reduction of BCL11A protein levels (BCL11A protein; FIG. 11): 60%
- cytotoxicity [3]: only minor cytotoxicity
- γ-globin mRNA expression elevation (γ-globin gene [4]): at least 2 fold
- water solubility [5]: improved
- GATA1 expression (γ globin activator), RT-qPCR vs mock (GATA1): 1.5 fold
- c-MYB expression (γ globin repressor), RT-qPCR vs mock (c-MYB): 0.5 fold
- top 5 canonical pathways affected (IPA of DEGs, fold change ≥1.4, p<0.05) [6]: does not include the cell toxicity-related pathways

SMILES: CCCC(=O)[O-].[Na+] [NaB, sodium butyrate, reference compound]
- expression level of BCL11A protein (in words) (BCL11A protein): significantly decreased

From patent publication US12246021B2, “Compounds for uses in pharmacological induction of HBF for treatment of sickle cell disease and ß-thalassemia” (Academia Sinica, priority 2019, dated 2025)
